# PubChem BioAssay (NCI)
#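 1) Cells in 96-well plates. 2) Compound, 48 h, 5 concentrations. 3) Linear interpolation between surrounding doses. 4) Unreached endpoint = highest concentration. TGI marks complete inhibition of growth.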
# How the values were obtained:
# Experiment in all cases: NCI-60 cell line screen, 48 h
# [1] = tested on: SNB-19 CNS
# [2] = tested on: SK-MEL-5 melanoma
# [3] = tested on: OVCAR-5 ovarian
# [4] = tested on: SF-539 CNS
# [5] = tested on: SF-295 CNS
# [6] = tested on: CCRF-CEM leukemia
# [7] = tested on: UACC-62 melanoma
# [8] = tested on: HOP-18 NSCLC
# [9] = tested on: DLD-1 colon
# [10] = tested on: SF-268 CNS
# [11] = tested on: HT29 colon
# [12] = tested on: HOP-92 NSCLC
# [13] = tested on: MOLT-4 leukemia
# [14] = tested on: OVCAR-4 ovarian
# [15] = tested on: KM20L2 colon
# [16] = tested on: NCI-H522 lung
# [17] = tested on: OVCAR-3 ovarian
# [18] = tested on: NCI-H226 lung
# [19] = tested on: COLO 205 colon
# [20] = tested on: KM12 colon
# [21] = tested on: SK-MEL-28 melanoma
# [22] = tested on: HL-60(TB) leukemia
# [23] = tested on: HCT-15 colon
# [24] = tested on: NCI-H23 lung
# [25] = tested on: SW-620 colon
# [26] = tested on: LXFL 529 NSCLC
# [27] = tested on: NCI-H460 lung
# [28] = tested on: LOX IMVI melanoma
# [29] = tested on: ACHN renal
# [30] = tested on: SK-MEL-2 melanoma
# [31] = tested on: TK-10 renal
# [32] = tested on: SNB-75 CNS
# [33] = tested on: HCC-2998 colon
# [34] = tested on: A549 NSCLC
# [35] = tested on: UACC-257 melanoma
# [36] = tested on: IGROV1 ovarian
# [37] = tested on: CAKI-1 renal
# [38] = tested on: MALME-3M melanoma
# [39] = tested on: M19-MEL melanoma
# [40] = tested on: RXF 393 renal
# [41] = tested on: M14 melanoma
# [42] = tested on: A498 renal
# [43] = tested on: DMS 114 small cell lung
# [44] = tested on: DMS 273 small cell lung
# [45] = tested on: EKVX NSCLC
# [46] = tested on: K-562 leukemia
# [47] = tested on: UO-31 renal
# [48] = tested on: SK-OV-3 ovarian
# [49] = tested on: 786-0 renal
# [50] = tested on: HCT-116 colon
# [51] = tested on: OVCAR-8 ovarian
# [52] = tested on: HOP-62 NSCLC
# [53] = tested on: SR leukemia
# [54] = tested on: RPMI-8226 leukemia
# [55] = tested on: SNB-78 CNS
# [56] = tested on: SN12C renal
# [57] = tested on: U251 CNS
compound,measurement,setting,value
CCOC(=O)c1c2ccc(/C=C/C(=O)OC)ccc-2c(C(=O)OCC)c1N,TGI,[1],> 100 µM
same,TGI,[2],> 100 µM
same,TGI,[3],> 100 µM
same,TGI,[4],> 100 µM
same,TGI,[5],> 100 µM
same,TGI,[6],> 100 µM
same,TGI,[7],> 100 µM
same,TGI,[8],> 100 µM
same,TGI,[9],> 100 µM
same,TGI,[10],9.68 µM
same,TGI,[11],> 100 µM
same,TGI,[12],> 100 µM
same,TGI,[13],> 100 µM
same,TGI,[14],> 100 µM
same,TGI,[15],> 100 µM
same,TGI,[16],> 100 µM
same,TGI,[17],> 100 µM
same,TGI,[18],> 100 µM
same,TGI,[19],> 100 µM
same,TGI,[20],> 100 µM
same,TGI,[21],8.42 µM
same,TGI,[22],> 100 µM
same,TGI,[23],> 100 µM
same,TGI,[24],> 100 µM
same,TGI,[25],> 100 µM
same,TGI,[26],> 100 µM
same,TGI,[27],> 100 µM
same,TGI,[28],> 100 µM
same,TGI,[29],> 100 µM
same,TGI,[30],> 100 µM
same,TGI,[31],> 100 µM
same,TGI,[32],> 100 µM
same,TGI,[33],> 100 µM
same,TGI,[34],> 100 µM
same,TGI,[35],> 100 µM
same,TGI,[36],> 100 µM
same,TGI,[37],> 100 µM
same,TGI,[38],> 100 µM
same,TGI,[39],> 100 µM
same,TGI,[40],> 100 µM
same,TGI,[41],> 100 µM
same,TGI,[42],49.4 µM
same,TGI,[43],> 100 µM
same,TGI,[44],> 100 µM
same,TGI,[45],> 100 µM
same,TGI,[46],> 100 µM
same,TGI,[47],> 100 µM
same,TGI,[48],> 100 µM
same,TGI,[49],> 100 µM
O=C(c1ccco1)N(C(=S)N1CCN(c2ccccc2)CC1)c1ccccc1,TGI,[1],> 100 µM
same,TGI,[2],> 100 µM
same,TGI,[50],> 100 µM
same,TGI,[3],> 100 µM
same,TGI,[4],> 100 µM
same,TGI,[5],> 100 µM
same,TGI,[6],> 100 µM
same,TGI,[7],> 100 µM
same,TGI,[8],> 100 µM
same,TGI,[51],> 100 µM
same,TGI,[9],> 100 µM
same,TGI,[10],> 100 µM
same,TGI,[52],> 100 µM
same,TGI,[53],> 100 µM
same,TGI,[54],> 100 µM
same,TGI,[11],> 100 µM
same,TGI,[12],> 100 µM
same,TGI,[13],> 100 µM
same,TGI,[14],> 100 µM
same,TGI,[15],> 100 µM
same,TGI,[16],> 100 µM
same,TGI,[17],> 100 µM
same,TGI,[18],> 100 µM
same,TGI,[19],> 100 µM
same,TGI,[20],> 100 µM
same,TGI,[55],> 100 µM
same,TGI,[21],> 100 µM
same,TGI,[22],> 100 µM
same,TGI,[23],> 100 µM
same,TGI,[24],> 100 µM
same,TGI,[25],> 100 µM
same,TGI,[26],> 100 µM
same,TGI,[27],> 100 µM
same,TGI,[28],> 100 µM
same,TGI,[29],> 100 µM
same,TGI,[30],> 100 µM
same,TGI,[31],> 100 µM
same,TGI,[32],> 100 µM
same,TGI,[34],> 100 µM
same,TGI,[35],> 100 µM
same,TGI,[36],> 100 µM
same,TGI,[37],> 100 µM
same,TGI,[38],> 100 µM
same,TGI,[39],> 100 µM
same,TGI,[56],> 100 µM
same,TGI,[40],> 100 µM
same,TGI,[57],> 100 µM
same,TGI,[41],> 100 µM
same,TGI,[43],> 100 µM
same,TGI,[44],> 100 µM
same,TGI,[46],> 100 µM
same,TGI,[47],> 100 µM
same,TGI,[48],> 100 µM
same,TGI,[49],> 100 µM
